Publication PMC2360155, “Novel retinoic acid metabolism blocking agents have potent inhibitory activities on human breast cancer cells and tumour growth” (British Journal of Cancer, 2007)
“Also recorded” adds a separate entry of the source.

Experiments:
cyclin D1 = assay: Western blotting for cyclin D1 in MCF-7 cells; format: cell-based, human; conditions: 6 days (4HPR 4 days)
Description: At the end of the treatment, cells were scrapped and collected by washing with ice-cold PBS in a centrifuge tube. Cells were centrifuged at 2500 r.p.m. for 10 min, the pellet was again washed with ice-cold PBS and centrifuged. The cell pellet was then suspended in chilled cell lysis buffer (0.1 M Tris–HCl, 0.5% Triton X-100, protease inhibitor cocktail) and sonicated on ice for 10–15 s. The homogenate was kept on ice for 30 min and then centrifuged at 13 000 r.p.m. for 30 min. The supernatant was used as cell lysate. The cell lysates were stored at −80°C. Protein concentration of the cell lysates was determined using Bio-Rad protein assay reagents.
Protein lysates from MCF-7 and T47D cells were subjected to sodium dodecyl sulphate–polyacrylamide gel electrophoresis (SDS–PAGE) and immunoblotted for different proteins. […] Immunoreactive bands were visualised using the enhanced chemiluminescence detection reagents and analysis system (Amersham Bioscences) according to the manufacturer's instructions and quantified by densitometry using ImageQuant software version 5.
Figure 5 Western blotting of whole-cell lysates of treated MCF-7 and T47D cells for the expression of Cyclin D1. […] Numbers below the blot show fold decrease in expression of the protein as analysed by ImageQuant densitometry analysis. […]

[1] = tested on: MCF-7Ca tumour xenografts; assay: In vivo antitumour study, MCF-7Ca tumour xenografts; design: species or system ovariectomised female athymic nude mice; conditions: for Prevention of formation of MCF-7Ca tumours (in words): 20 mg kg^−1 day^−1 from the day after inoculation
Description: The third in vivo antitumour experiment was conducted with MCF-7Ca tumours. MCF-7Ca were provided by Dr S Chen (City of Hope, Duarte, CA, USA). The tumour xenografts were grown in mice as described previously ([Yue et al, 1994]). Subconfluent cells were scraped into Delbecco's phosphate-buffered saline, collected by centrifugation and resuspended in Matrigel (10 mg ml^−1) at 2.5 × 10^7 cells ml^−1. Each mouse received s.c. inoculations in two sites per flank with 100 μl of cell suspension. Mice in the tumour formation prevention group (n=5) were than injected daily with androstenedione (100 μg day^−1) plus VN/14-1 (20 mg kg^−1 day^−1) in the vehicle for the duration of the experiment. The rest of the mice were injected daily with 100 μg day^−1 of androstenedione. Measurements and treatments began when the tumours reached approximately 300 mm^3, about 6 weeks after cell inoculation. Mice were assigned to groups for treatment so that there was no statistically significant difference in tumour volumes among the groups at the beginning of the treatment. Tumours were measured and volumes calculated as described above. Mice were than injected s.c. daily with the indicated agents: 100 μg per mouse per day (5 × weekly) plus 10 μg per mouse per day (5 × weekly) of letrozole or 200 μg per mouse per day (5 × weekly) of anastrozole and 20 mg kg^−1 day^−1 (5 × weekly) of VN/14-1. The doses of letrozole, anastrozole, androstendione and VN/14-1 used are as determined previously ([Long et al, 2002], [2004]; [Patel et al, 2004]). The mice were treated for the indicated times, after which they were killed by decapitation and blood collected. Tumours and uteri were excised, cleaned, weighed and stored at −80°C for additional analyses.
Figure 10 Effects of VN/14-1 on the formation of MCF-7Ca tumours and effects of VN/14-1, anastrozole and letrozole on the growth of MCF-7Ca xenografts in ovariectomised female athymic nude mice. Mice were inoculated with MCF-7Ca cells as described in Materials and Methods. Beginning on the following day, androstendione (100 μg per mouse per day) was supplemented by s.c. injection for the duration of the experiment. For the tumour formation prevention group (n=5), VN/14-1 (20 mg kg^−1 day^−1) treatment began from the day after inoculation. For the other groups (VN/14-1, anastrazole and letrozole), treatment began after the tumour had reached approximately 300 mm^3 following procedures described in Materials and Methods.

T47D cells = assay: TUNEL apoptosis assay, T47D; format: cell-based, human; conditions: 5 μM; 6 days; control about 1.5%
From the text: The cells were rinsed with PBS and then the stained-labelled apoptotic cells were mounted using DAPI (diamidino-2-phenylindole 2HCl)-glycerol and visualised with a fluorescent microscope using two filters (1) for TUNEL stained cells, and (2) for DAPI stained cells, which represents all the cells (nuclei). Fluorescent microscope model was Nikon, Eclipse E400 and the software was SPOT advanced version 3.5.5 by Diagnostic Instruments Inc. (Sterling Heights, MI, USA).
Figure 6 Graphs showing apoptosis induced in (A) MCF-7 and (B) T47D cells as determined by TUNEL. […] TUNEL-stained apoptotic cells were counted against the DAPI stained cells to obtain percentage apoptosis. The experiments were repeated thrice with similar results. Error bars show s.e.m of three different fields of treated cells, statistically significant ^*P<0.01 and ^**P<0.001 vs control.

For `CC1=C(/C=C/C(C)=C/C=C/C(C)=C/C(=O)O)C(C)(C)CCC1` [ATRA, all-trans-retinoic acid, reference compound], the “Decrease of cyclin D1 protein expression compared with untreated control” value (cyclin D1) was greater than 80%.
With `CC1=C(/C=C/C(C)=C/C=C/C(C)=C/C(=O)O)C(C)(C)CCC1n1ccnc1` (stereo not drawn) [VN/14-1] the “Prevention of formation of MCF-7Ca tumours (in words)” value [1] was “very effective in preventing the formation of MCF-7Ca tumours”, the “Prevention of formation of MCF-7Ca tumours (in words)” value ([1]; listed as VN14-1) was “efficacious in preventing the formation of MCF-7Ca tumours” and the “Inhibition of growth of established MCF-7Ca tumours (in words)” value ([1]; 20 mg kg^−1 day^−1 s.c. (5 × weekly), androstenedione supplemented) was “as effective as the clinically used aromatase inhibitors, anastrozole and letrozole; also recorded: as effective as either anastrozole or letrozole”. For the same molecule, the Uterine wet weight ([1]; VN/14-1 treatment, data not shown) was “significant reduction in uterine wet weight”.
With `CC1=C(/C=C/C(C)=C/C=C/C(C)=C\C(=O)Nc2ccc(O)cc2)C(C)(C)CCC1n1ccnc1` (stereo not drawn) [VN/69-1] the “Induction of apoptosis (TUNEL), T47D” value (T47D cells) was “least effective of the RAMBAs in inducing apoptosis”.
